Results as given in patent US20250223610A1, “MEASUREMENT OF SOMATIC L1 RETROTRANSPOSITION ACTIVITY” (SZEGEDI BIOLÓGIAI KUTATÓKÖZPONT, priority 2022, published 2025).
“Also recorded” adds a separate entry of the source. One block for each molecule: values may come before it.

Assays:
[1] = tested on: somatic L1 retrotransposition; assay: SYBR Green-based intronless EGFP qPCR on liver DNA of ORFeus reporter bearing Fah-/- mice; assay type: in vivo; settings: 1 mg/kg IP twice weekly from NTBC withdrawal; liver samples after three months; preliminary results
Description: Multiple qPCR-based methods have already been published offering the possibility to measure the amount of intron-free EGFP copies produced during retrotransposition of the ORFeus reporter (Mita, Sun et al. 2020). Based on these published methods, we have also started to quantify our results.
NTBC was withdrawn after hydrodynamic plasmid delivery.
To measure the retrotransposition events of the synthetic L1 element we carried out genomic exon-exon junction qPCR analysis of the spliced, intronless EGFP using two different qPCR detection chemistry. SYBR Green based qPCR was done using PerfeCTa SYBR Green SuperMix (Quantabio). Cycling conditions were as follows: 95° C. for 7 min, 4 cycles of 10 s at 95° C., 15 s at 66° C. (−1° C./cycle, no acquisition), followed by 40 cycles of 5 s at 95° C., 10 s at 62° C. The following primers were used: […]
Probe-based qPCR detection was done as previously described (Mita, Sun et al. 2020) using PerfeCTa qPCR ToughMix (Quantabio). All qPCR reactions were performed on a Rotor-Gene Q instrument (Qiagen) in triplicates using 87 ng of gDNA. Analysis was carried out with the Rotor-Gene Q software (Qiagen). Relative changes in expression levels were calculated using the ΔCT method (Livak and Schmittgen 2001) SYBR Green and probe-based qPCR results were normalized to measurements of the Olfr16 and Rpl21 internal control genes, respectively.

[2] = tested on: somatic L1 retrotransposition; assay: FACS measurement of EGFP-positive hepatocytes isolated from ORFeus carrying Fah-/- mice; settings: 1 million hepatocytes per sample; Decitabine 1 mg/kg IP twice weekly
Description: For evaluating alternative detection methods we investigated the outcome of Decitabine (5-aza-2′-deoxycytidine) treatments in the assay of the invention. 10 Fah^−/− animals were injected hydrodynamically and after NTBC withdrawal, 5 were started on Decitabine and 5 animals were kept without drug treatment as a control group. Under our current drug treatment regime administration of drugs starts at the same time as NTBC withdrawal.
To test this approach, 2-2 animals from Decitabine-treated and control experimental groups were subjected to liver perfusion and hepatocyte isolation.
Mice were housed under 12 h light-dark cycle at 22° C. with free access to water and regular rodent chow. […] Fah^−/− mice were treated with 8 mg/l Orfadin® (Nitisinone, NTBC) (Swedish Orphan Biovitrum) in drinking water. NTBC was withdrawn after hydrodynamic plasmid delivery. […] Dosing, scheduling, and the route of administration of all drugs and chemical compounds were determined according to the manufacturer's instructions and literature data. […] The body weight of the mice was monitored continuously. […]
Procurement of liver for hepatocyte isolation was done under sodium pentobarbital (Nembutal) (Sigma Aldrich) anaesthesia. […] Cell numbers were determined using a Burker chamber. Cell viability was determined by trypan blue exclusion test. […]

[3] = tested on: somatic L1 retrotransposition; assay: Stereomicroscopic macrovisualization of EGFP positive hepatocyte colonies in liver of Fah-/- mice carrying the ORFeus reporter; assay type: in vivo; settings: 5 mg/kg IP twice weekly from NTBC withdrawal; livers examined after 3 months
Description: In these proof of concept studies the present inventors have used an L1-ORF2-free ORFeus and amiR-free construct variant (shown in FIG. 3B). First, the ORFeus-expressing transposon and the hyperPB transposase helper plasmid were co-delivered hydrodynamically into the liver of Fah^−/− mice, then the curative drug nitisinone (NTBC) was withdrawn (FIG. 2A). In those hepatocytes where hydrodynamic transfection is successful, the hyperactive transposase helper enzyme is likely to catalyse the “cut and paste” transposition reaction presumably leading to an integration into the host chromosomes (Skipper, Andersen et al. 2013).
FICZ was administered by intraperitoneal (IP) injection at a dose of 5 mg/kg body weight twice weekly. […]
The results of EGFP macrovisualization were summarized in FIG. 5 for the control, FICZ-treated and MeIQx-treated experimental groups. The number of EGFP-positive hepatocyte cell colonies detectable by stereomicroscopy in the liver of each animal was counted and per-animal values were plotted on a box diagram. […]
Pictures of whole mouse livers were taken with an Olympus SZX12 fluorescence stereozoom microscope equipped with a 100 W mercury lamp and filter sets for selective excitation and emission of GFP and mCherry.

[4] = tested on: Tp53 gene; assay: Tp53 silencing by amiR element; set-up: species or system mouse
Description: For example, silencing of the Tp53 gene can attenuate the P53 L1 sensor (Ardeljan, Steranka et al. 2020) (FIG. 1B), without completely inactivating it. Such an effect is predicted to increase the tolerance of somatic cells to ORFeus reporter expression. We have developed three efficient Tp53 silencing amiR elements. Of these, amiR-mP53/1 capable to produce approximately 20% remaining Tp53 gene expression is currently being tested in our laboratory. Presumably, it will be able to increase the sensitivity of the somatic L1 activity measuring system. However, its application is not essential. Our results so far, at least in our in vivo system, are in conflict with the finding of the authors describing the role of the P53 sensor stating that wild-type retinal pigment epithelium-1 (RPE) cells undergo a TP53-dependent growth arrest in response to L1 (Ardeljan, Steranka et al. 2020). In contrast, ORFeus expressing mouse liver cells are able to regenerate the liver in the absence of p53 silencing (FIG. 3B).

induction of somatic L1 retrotransposition (amount of intron-free EGFP copies, normalized to Olfr16) [1]: weak inducer
Molecule: Nc1ncn([C@H]2C[C@H](O)[C@@H](CO)O2)c(=O)n1 [Decitabine, 5-aza-2′-deoxycytidine]
number of EGFP-expressing cells by FACS compared to controls [2]: higher number; also recorded: confirmed the results obtained with qPCR

Molecule: O=Cc1c2c(cc3c1=Nc1ccccc1-3)=Nc1ccccc1-2 [FICZ, 6-Formylindolo[3,2-b]carbazole]
number of EGFP fluorescent (ORFeus retrotransposition bearing) hepatocyte colonies in liver as compared to non-drug-treated controls [3]: more EGFP fluorescent colonies; also recorded: higher number

Molecule: Cc1cnc2ccc3c(nc(N)n3C)c2n1 [MeIQx, 2-Amino-3,8-Dimethylimidazo[4,5.f]Quinoxaline]
number of EGFP fluorescent (ORFeus retrotransposition bearing) hepatocyte colonies in liver as compared to non-drug-treated controls [3]: higher number

B1: amiR-mP53/1: Tp53 silencing artificial microRNA (amiR) element, SEQ ID NO: 19 (nucleic acid)
DNA: GGGCCCGTGTACCGGTGTGTGAGCTCTGTTTGAATGAGGCTTCAGTACTTTACAGAATCGTTGCCTGCACATCTTGGAAACACTTGCTGGGATTACTTCTTCAGGTTAACCCAACAGAAGGCTCGAGAAGGTATATTGCTGTTGACAGTGAGCGATCACTGCATGGACGATCTGTTTAGTGAAGCCACAGATGTAAACAGATCGTCCATGCAGTGAGTGCCTACTGCCTCGGACTTCAAGGGGCTACTTTAGGAGCAATTATCTTGTTTACTAAAACTGAATACCTTGCTATCTCTTTGATACATTTTTACAAAGCTGAATTAAAATGGTATAAATTAAATCACTTTGTCGACGTGTTCTAGAGTGTGCCGGC
modifications: misc_feature 27..121 Endogenous miR30a 5' flanking; misc_feature 155..176 Target with N1 A mismatch; stem_loop 177..195 loop; misc_feature 196..217 guide; misc_feature 238..347 Endogenous miR30a 3' flanking; amiR-mP53/1 element
remaining Tp53 gene expression [4]: approximately 20%
